These results are taken from patent publication US6153419A, “Method for quantitative determination of 1,5-anhydroglucitol” (Kyowa Hakko Kogyo Co., Ltd., priority 1996, dated 2000).

Read-outs that look alike come from different tables or passages of the source.

What all share (assay type): biochemical
The test system of assay [1] is trehalase derived from Nocardia sp. NK-2067. Briefly: Inhibition specificity of the novel trehalase to various sugars, trehalose as substrate. Particulars: sugar at 1.75 mM. On the procedure: The enzyme was also examined for inhibition specificity to various sugars at 1.75 mM using trehalose as a substrate.
(§1) Trehalose is dissolved in 100 mM phosphate buffer (pH 5.5) to give a concentration of 12.5 mM.
(§2) Glucose oxidase (Toyobo Co., Ltd., Grade II), peroxidase (Toyobo Co., Ltd., Grade III), 4-aminoantipyrine and phenol are dissolved in water to give final concentrations of 0.04 mg/ml, 0.04 mg/ml, 1.2 mM and 21 mM, respectively.
(§3) To 1 ml of the substrate solution is added 0.02 ml of an enzyme solution, and reaction is carried out at 37° C. for 30 minutes. The reaction is stopped by heating at 100° C. for 3 minutes. To the reaction mixture is added 1 ml of the color-producing reagent, and reaction is carried out at 37° C. for 20 minutes, followed by measurement of the absorbance at 500 nm. A control solution is prepared by using water instead of the enzyme solution in the above procedure.
(§4) The trehalase activity is expressed by unit, one unit being defined as that amount of the enzyme which will hydrolyze 1 μmol of trehalose at 37° C. in one minute. The activity per milliliter of enzyme solution (U/ml) can be calculated from the net difference in absorbance (enzyme solution-control solution) according to the following equation. [formula]

For assay [2], the target named is trehalase derived from Nocardia sp. NK-2067. Briefly: Substrate and inhibitor affinity by Lineweaver-Burk plot. Particulars: pH 5.5, Lineweaver-Burk plot. On the procedure: The Km value of the enzyme for trehalose at pH 5.5 as determined by Lineweaver-Burk plot [J. Am. Chem. Soc., 56, 658 (1934)] is 6.7 mM.
The subject of assay [3] is trehalase derived from Rhodococcus globerulus ATCC 14898. The assay can be described thus: Test Example 1: specificity of inhibition by 1,5-anhydroglucitol. Particulars: for Inhibition (%): test sugar 1 mM, 100 mM phosphate buffer pH 7.0, 10 mg/ml trehalose, 10 minutes. On the procedure: A reaction mixture was prepared by adding 10 mU/ml trehalase prepared in Reference Example 3, 0.81 mg/ml 4-aminoantipyrine, 1 mg/ml EMSE, 30 U/ml glucose oxidase, 10 U/ml peroxidase, and 1 mM test sugar shown in Table 4 to 100 mM phosphate buffer (pH 7.0). After addition of 10 mg/ml trehalose to the reaction mixture and stirring, the change in absorbance at 550 nm was measured with a spectrophotometer.

For assay [4], the system named is trehalose phosphorylase derived from Catellatospora ferruginea FERM BP-4329. Briefly: Example 1: inhibition of the decomposition activity of trehalose phosphorylase. Particulars: pH 7.0, FIG. 5. The procedure:
A reaction mixture was prepared by adding 10 mU/ml trehalose phosphorylase derived from Catellatospora ferruginea prepared in Reference Example 1, 2.5 U/ml […] (Beckman Instruments, Inc.), 5 U/ml glucose-6-phosphate dehydrogenase (Sigma Chemical Co.), 10 mM NADP, and a sample containing 1,5-anhydroglucitol at a varied concentration to 100 mM phosphate buffer (pH 7.0). After addition of 10 mg/ml trehalose to the reaction mixture and stirring, the increase in absorbance at 340 nm was measured with a spectrophotometer.

Assay [5] shares this test system. The assay can be described thus: Example 2: inhibition of the synthesis activity of trehalose phosphorylase. Particulars: imidazole buffer pH 7.0, FIG. 6. On the procedure: A reaction mixture (3 ml) was prepared by adding 10 mU/ml trehalose phosphorylase prepared in Reference Example 1, 50 mM glucose, 2 ml of a kit for the determination of inorganic phosphorus (Kyowa Medex Co., Ltd.), and a sample containing 1,5-anhydroglucitol at a varied concentration to 50 mM imidazole buffer (pH 7.0). After addition of 50 mM β-glucose-1-phosphate to the reaction mixture and stirring, the increase in absorbance at 550 nm was measured with a spectrophotometer.

Assay [6] deals with trehalase derived from Streptomyces aureofaciens ATCC 10762. Briefly: Example 3: inhibition of trehalase, calibration curve. Particulars: pH 7.0, FIG. 7. On the procedure: (§5) A reaction mixture was prepared by adding 10 mU/ml trehalase prepared in Reference Example 2, 0.81 mg/ml 4-aminoantipyrine, 1 mg/ml EMSE, 30 U/ml glucose oxidase, 10 U/ml peroxidase, and a sample containing 1,5-anhydroglucitol at a varied concentration to 100 mM phosphate buffer (pH 7.0). After addition of 10 mg/ml trehalose to the reaction mixture and stirring, the increase in absorbance at 550 nm was measured with a spectrophotometer.

For assay [7], the system named is trehalase derived from Rhodococcus globerulus ATCC 14898. Briefly: Example 4: inhibition of trehalase, calibration curve. Particulars: pH 7.0, FIG. 8. The procedure:
as §5
The same procedure as in Example 3 was repeated, except that trehalase derived from Rhodococcus globerulus prepared in Reference Example 3 was used.

Assay [8] deals with trehalase derived from Nocardia sp. NK-2067. The assay can be described thus: Example 6: inhibition of trehalase, calibration curve. Particulars: pH 7.0, FIG. 9. On the procedure:
as §5
The same procedure as in Example 3 was repeated, except that trehalase derived from Nocardia sp. prepared in Example 5 was used.

For assay [9] the test system is unchanged. The assay can be described thus: Effect of metal chelating agents, enzyme inhibitors and metal ions on the novel trehalase. On the procedure: The effect of various metal chelating agents, enzyme inhibitors and metal ions on the enzyme was investigated at a concentration of 1 mM.
as §3

The test system is the same in assay [10]. The assay can be described thus: Substrate specificity of the novel trehalase (activity on various substrates). Particulars: for Relative activity (%): substrate 1.75 mM, 100 mM phosphate buffer pH 5.5, activity on trehalose defined as 100. On the procedure:
The activity of the enzyme on various substrates was measured at a substrate concentration of 1.75 mM in 100 mM phosphate buffer (pH 5.5). The results are shown in Table 1 as relative activities, the activity on trehalose being defined as 100.
The enzyme activity is measured in the following manner.
as §1, §2, §3, §4

A word on the Ki: it is the equilibrium dissociation constant of an inhibitor or competing ligand from its target. As to `OC[C@H]1OC[C@H](O)[C@@H](O)[C@@H]1O` [1,5-Anhydroglucitol], the “Inhibition (%)” value in assay [1] came to 80.7%; in assay [3] it was 45.0%. Also, in assay [2] (read-out: Ki value of the enzyme), the Ki is 330 µM. For the same compound, in assay [3] (conclusion from Table 4), the “Specificity of inhibition in words” value is recorded as “inhibited specifically”. Moreover, the “Relationship between inhibition rate and concentration” value in [4], in assay [5], in assay [6], in [7] and in assay [8] was “good linear relationship” each time. For the compound `c1cnc2c(c1)ccc1cccnc12` [1,10-Phenanthroline], in assay [9] (compound at 1 mM), the “Inhibition (%)” value came out at 88.5%. Besides, the “Inhibition of the enzyme in words” value in assay [9] (summary of Table 3) is given as “inhibited”. The matching figures for `c1ccc(-c2ccccn2)nc1` [2,2'-Bipyridyl]: 60.0% and “inhibited”. Regarding `[Ba+2].[Cl-].[Cl-]` [BaCl2], the “Inhibition (%)” value in assay [9] (compound at 1 mM) is given as 40.7%. Same read-out and setting: for `[Cl-].[Cl-].[Co+2]` [CoCl2] the value was 20.4%. With `O=C(CO)[C@@H](O)[C@H](O)[C@H](O)CO` [D-Fructose], the “Inhibition (%)” value in assay [3] amounted to 0%. On the same count and under the same terms, for `C[C@H]1OC(O)[C@H](O)[C@@H](O)[C@H]1O` (stereo partly drawn) [D-Fucose] the value was 0%; for `OC[C@H]1OC(O)[C@H](O)[C@@H](O)[C@H]1O` (stereo partly drawn) [D-Galactose], 0.2%; for `N[C@H]1C(O)O[C@H](CO)[C@@H](O)[C@@H]1O` (stereo partly drawn) [D-Glucosamine], 0%. On the same count and under the same terms, under `OC[C@H]1OC(O)[C@@H](O)[C@@H](O)[C@@H]1O` (stereo partly drawn) [D-Mannose] stands 0.5%. The same measure, in the same setting: for `OC1OC[C@@H](O)[C@H](O)[C@H]1O` (stereo partly drawn) [D-Xylose] the value was 0%. For the compound `CCN(CC)C(=S)S` [Diethyldithiocarbamic acid], the “Inhibition (%)” value in assay [9] (compound at 1 mM) amounted to 51.0%. As for `O=C(O)CN(CCN(CC(=O)O)CC(=O)O)CC(=O)O` [EDTA, ethylenediaminetetraacetic acid], in assay [9], the “Inhibition (%)” value was found to be 67.6% and the “Inhibition of the enzyme in words” value is “inhibited”. With `NO` [Hydroxylamine], the “Inhibition (%)” value in assay [9] (compound at 1 mM) turned out to be 81.2%. For the same compound, in [9] (summary of Table 3), the “Inhibition of the enzyme in words” value is “inhibited”. Regarding `NC(=O)CI` [Iodoacetamide], the “Inhibition (%)” value in [9] (compound at 1 mM) turned out to be 83.6%. For the same compound, the “Inhibition of the enzyme in words” value in assay [9] (summary of Table 3) is “inhibited”. For the compound `OC[C@H]1O[C@H](O[C@H]2C(O)O[C@H](CO)[C@@H](O)[C@@H]2O)[C@H](O)[C@@H](O)[C@@H]1O` (stereo partly drawn) [Kojibiose], in [10], the “Relative activity (%)” value turned out to be 0%. The “Inhibition (%)” value in assay [1] is listed as 0%.

Regarding `C[C@@H]1OC(O)[C@@H](O)[C@H](O)[C@@H]1O` (stereo partly drawn) [L-Fucose], the “Inhibition (%)” value in assay [3] is recorded as 0%. With `OC[C@H]1O[C@@H](O[C@H]2[C@H](O)[C@@H](O)C(O)O[C@@H]2CO)[C@H](O)[C@@H](O)[C@H]1O` (stereo partly drawn) [Lactose], in [10], the “Relative activity (%)” value was determined as 0%. The “Inhibition (%)” value in assay [1] is 0%. `OC[C@H]1O[C@H](O[C@H]2[C@H](O)[C@@H](O)[C@H](O)O[C@@H]2CO)[C@H](O)[C@@H](O)[C@@H]1O` [Maltose]: the “Relative activity (%)” value in [10] was found to be 0%. The “Inhibition (%)” value in assay [1] and in [3] was 0% throughout. For `CC(=O)N[C@H]1C(O)O[C@H](CO)[C@@H](O)[C@@H]1O` (stereo partly drawn) [N-Acetyl-D-glucosamine], the “Inhibition (%)” value in assay [3] is on record as 0%. For `O=C1CCC(=O)N1Br` [N-Bromosuccinimide], the “Inhibition (%)” value in assay [9] (compound at 1 mM) came to 23.4%. The same measure, in the same setting: for `CCN1C(=O)C=CC1=O` [N-Ethylmaleimide] the value was 21.9%. Consider `O=S(=O)([O-])[O-].[Ni+2]` [NiSO4, nickel sulfate], for which, in assay [9], the “Inhibition (%)” value was determined as 62.1% and the “Inhibition of the enzyme in words” value was “inhibited”. Consider `OC[C@H]1O[C@H](O[C@H]2[C@H](O)[C@@H](CO)OC(O)[C@@H]2O)[C@H](O)[C@@H](O)[C@@H]1O` (stereo partly drawn) [Nigerose], for which, in [10], the “Relative activity (%)” value was found to be 0%. In addition, the “Inhibition (%)” value in assay [1] stood at 0%. Turning to `[N-]=[N+]=[N-]` [Sodium azide], the “Inhibition (%)” value in assay [9] (compound at 1 mM) is 22.8%.

On to `OC[C@H]1O[C@@](CO)(O[C@H]2O[C@H](CO)[C@@H](O)[C@H](O)[C@H]2O)[C@@H](O)[C@@H]1O` [Sucrose], for which the “Relative activity (%)” value in assay [10] is 0%. Moreover, the “Inhibition (%)” value in [1] and in [3] was 0% in each case. On to `N[C@H]1[C@@H](O[C@H]2O[C@H](CO)[C@@H](O)[C@H](O)[C@H]2O)O[C@H](CO)[C@@H](O)[C@@H]1O` [Trehalosamine], for which the “Relative activity (%)” value in [10] was found to be 0.5%. What is called Km is the substrate concentration at which the rate is half of its maximum. As to `OC[C@H]1O[C@H](O[C@H]2O[C@H](CO)[C@@H](O)[C@H](O)[C@H]2O)[C@H](O)[C@@H](O)[C@@H]1O` [Trehalose], in assay [10] (conclusion from Table 1), the “Substrate specificity in words” value is given as “specifically acts on”. Besides, in assay [10], the “Relative activity (%)” value turned out to be 100%. In assay [2] (read-out: Km value of the enzyme), the Km stood at 6.7 mM. Take `O=S(=O)([O-])[O-].[Zn+2]` [ZnSO4]: the “Inhibition (%)” value in [9] (compound at 1 mM) is given as 53.4%.

Take `O=C(O)c1cc[c]([Hg][OH])cc1` [p-Mercuribenzoic acid]: in assay [9] (compound at 1 mM), the “Inhibition (%)” value is reported as 94.7%. The “Inhibition of the enzyme in words” value in assay [9] (summary of Table 3) was “inhibited”.
